According to PubChem BioAssay (NCI):
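Exposure lasted 48 hours, with cells grown in 96-well plates and compounds tested at five concentrations. TGI denotes the concentration required for complete inhibition of growth.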 Where a SMILES comes first, the peptide text is derived from it. The star is where a group is joined. Fmoc = O=C(OCC1c2ccccc2-c2ccccc21)*; OtBu = CC(C)(C)O*

Legend:
Test in all cases: growth of human tumour cells (NCI), 48 h
[1] = test system: A498 renal
[2] = test system: A549 NSCLC
[3] = test system: ACHN renal
[4] = test system: DU-145 prostate
[5] = test system: EKVX NSCLC
[6] = test system: HCT-15 colon
[7] = test system: HS 578T breast
[8] = test system: IGROV1 ovarian
[9] = test system: M14 melanoma
[10] = test system: MDA-MB-435
[11] = test system: OVCAR-4 ovarian
[12] = test system: RPMI-8226 leukemia
[13] = test system: SK-OV-3 ovarian
[14] = test system: SNB-19 CNS
[15] = test system: SR leukemia
[16] = test system: SW-620 colon
[17] = test system: UACC-257 melanoma

Row | Compound | TGI [1] [µM] | TGI [2] [µM] | TGI [3] [µM] | TGI [4] [µM] | TGI [5] [µM] | TGI [6] [µM] | TGI [7] [µM] | TGI [8] [µM] | TGI [9] [µM] | TGI [10] [µM] | TGI [11] [µM] | TGI [12] [µM] | TGI [13] [µM] | TGI [14] [µM] | TGI [15] [µM] | TGI [16] [µM] | TGI [17] [µM]
1 | CC(C)C(NC(=O)OCC1c2ccccc2-c2ccccc21)C(=O)NC(CCC(=O)OC(C)(C)C)C(=O)OC(C)(C)C (centres undefined) (Fmoc-Val-Glu(OtBu)-OtBu; configuration not given here) | > 100 | > 100 | > 100 | > 100 | > 100 | > 100 | > 100 | > 100 | > 100 | > 100 | > 100 | > 100 | > 100 | > 100 | > 100 | > 100 | > 100
2 | CC1=NN(c2nc(N)nc(CN3CCOCC3)n2)C(C)(C)C1 | > 100 | > 100 | > 100 | > 100 | > 100 | > 100 | > 100 | 37.2 | > 100 | > 100 | 45.7 | > 100 | > 100 | > 100 | > 100 | > 100 | > 100
3 | COc1ccc(C(CC2(c3ccc(OC)cc3)SCCCS2)NC(C)=O)cc1 (centres undefined) | > 100 | > 100 | > 100 | > 100 | > 100 | > 100 | > 100 | > 100 | > 100 | > 100 | – | > 100 | > 100 | > 100 | > 100 | > 100 | 70.2
4 | O=C(Nc1ccccc1)c1cc(S(=O)(=O)Nc2n[nH]c(=O)n2-c2ccccc2)c(S)cc1Cl | > 100 | > 100 | – | > 100 | > 100 | > 100 | > 100 | > 100 | > 100 | > 100 | > 100 | > 100 | > 100 | > 100 | > 100 | > 100 | > 100
5 | C=C(Cl)C(Cl)(CBr)CCC(Br)C(C)(C)Br (centres undefined) | 23.3 | 16.3 | 5.53 | 11.9 | 15.6 | 9.35 | 12.1 | 37.3 | 33.6 | 24.5 | 36 | 2.01 | 26.5 | 23.1 | 32.9 | 8.32 | 4.4
6 | N#CC12C(=O)NC(=O)C1(C#N)C1C=CC2CC1 (centres undefined) | – | > 100 | > 100 | > 100 | > 100 | > 100 | > 100 | – | > 100 | > 100 | > 100 | > 100 | > 100 | > 100 | > 100 | > 100 | > 100
7 | CO/C=C/C=C(\C#N)C(=O)OC | > 100 | > 100 | > 100 | > 100 | > 100 | > 100 | > 100 | > 100 | – | > 100 | > 100 | > 100 | > 100 | > 100 | > 100 | > 100 | > 100
8 | O=C(O)c1ccccc1C(=O)NCC1S(=O)(=O)OCCOS1(=O)=O | > 100 | > 100 | > 100 | > 100 | > 100 | > 100 | > 100 | > 100 | > 100 | > 100 | > 100 | > 100 | > 100 | > 100 | > 100 | > 100 | > 100
9 | N#C/C(=C\c1ccc(F)cc1)c1nc(-c2cc3ccccc3oc2=O)cs1 | – | > 100 | > 100 | > 100 | > 100 | > 100 | 56.7 | 85 | 50.7 | > 100 | > 100 | > 100 | 67.5 | 41.1 | > 100 | > 100 | 65.9
10 | N#CC12C(=O)N3C(=NC(c4ccco4)NC3c3ccco3)C1(C#N)C(c1ccco1)NC1=C2CCCC1 (centres undefined) | > 100 | > 100 | > 100 | > 100 | > 100 | > 100 | > 100 | > 100 | > 100 | > 100 | > 100 | > 100 | > 100 | > 100 | > 100 | > 100 | > 100
11 | Cc1ccc2c(=O)cc(-c3sccc3C)[nH]c2n1 | > 35 | – | > 54.5 | > 67.3 | > 100 | > 40.6 | 13.6 | > 96 | > 34.4 | > 100 | > 100 | – | > 100 | > 100 | > 61.1 | – | –
12 | Nc1nc(Cl)cc(NCC2(O)CCC2)n1 | > 100 | > 100 | > 100 | > 100 | > 100 | > 100 | > 100 | > 100 | – | > 100 | > 100 | > 100 | > 100 | – | > 100 | > 100 | > 100
13 | FC1(F)[Se]C2C3CCC(C3)C2C1(F)F (centres undefined) | > 100 | > 100 | > 100 | > 100 | > 100 | > 100 | > 100 | > 100 | > 100 | > 100 | > 100 | > 100 | > 100 | > 100 | > 100 | > 100 | –
14 | Cc1ccc(CC(Cc2ccccc2C)C(=O)O)c(C(=O)O)c1 (centres undefined) | > 100 | > 100 | > 100 | > 100 | > 100 | > 100 | > 100 | > 100 | > 100 | > 100 | > 100 | > 100 | – | > 100 | > 100 | > 100 | > 100
